Assay results as given in ChEMBL document CHEMBL4507296 (2021).

What was measured:
[1] = target: Mitogen-activated protein kinase kinase kinase kinase 5 (Homo sapiens) (UniProt Q9Y4K4); conditions: Compound concentration 1000.0 nM
[2] = target: RAF proto-oncogene serine/threonine-protein kinase (Homo sapiens) (UniProt P04049); conditions: Compound concentration 1000.0 nM
[3] = target: GABA-A receptor; anion channel (Rattus norvegicus) (UniProt O09028+P15431+P18506+P18508+P19969+P20236+P23574+P23576+P28471+P28473+P30191+P62813+P63079+P63138+Q91ZM7+Q9ES14); conditions: Compound concentration 10.0 uM
[4] = target: Serine/threonine-protein kinase PLK1 (Homo sapiens) (UniProt P53350); conditions: Compound concentration 1000.0 nM
[5] = target: Ribosomal protein S6 kinase alpha-5 (Homo sapiens) (UniProt O75582); conditions: Compound concentration 1000.0 nM
[6] = target: Phosphatidylinositol 3-kinase catalytic subunit type 3 (Homo sapiens) (UniProt Q8NEB9); conditions: Compound concentration 1000.0 nM
[7] = target: Serine/threonine-protein kinase MARK2 (Homo sapiens) (UniProt Q7KZI7); conditions: Compound concentration 1000.0 nM
[8] = target: Serine/threonine-protein kinase PAK 4 (Homo sapiens) (UniProt O96013); conditions: Compound concentration 1000.0 nM
[9] = target: Cyclin-dependent kinase-like 2 (Homo sapiens) (UniProt Q92772); conditions: Compound concentration 1000.0 nM
[10] = target: Atypical kinase COQ8B, mitochondrial (Homo sapiens) (UniProt Q96D53); conditions: Compound concentration 1000.0 nM
[11] = test system: Serine/threonine-protein kinase B-raf (Homo sapiens), P15056 [V600E]; conditions: Compound concentration 1000.0 nM
[12] = target: Leukocyte tyrosine kinase receptor (Homo sapiens) (UniProt P29376); conditions: Compound concentration 1000.0 nM
[13] = target: Tyrosine-protein kinase Yes (Homo sapiens) (UniProt P07947); conditions: Compound concentration 1000.0 nM
[14] = target: Tyrosine-protein kinase Fyn (Homo sapiens) (UniProt P06241); conditions: Compound concentration 1000.0 nM
[15] = target: Sigma intracellular receptor 2 (Homo sapiens) (UniProt Q5BJF2); conditions: Compound concentration 10.0 uM
[16] = target: Maternal embryonic leucine zipper kinase (Homo sapiens) (UniProt Q14680); conditions: Compound concentration 1000.0 nM
[17] = target: MAP kinase-activated protein kinase 5 (Homo sapiens) (UniProt Q8IW41); conditions: Compound concentration 1000.0 nM
[18] = target: Membrane-associated tyrosine- and threonine-specific cdc2-inhibitory kinase (Homo sapiens) (UniProt Q99640); conditions: Compound concentration 1000.0 nM
[19] = target: Dual specificity testis-specific protein kinase 1 (Homo sapiens) (UniProt Q15569); conditions: Compound concentration 1000.0 nM
[20] = target: Serine/threonine-protein kinase MAK (Homo sapiens) (UniProt P20794); conditions: Compound concentration 1000.0 nM
[21] = target: Dual serine/threonine and tyrosine protein kinase (Homo sapiens) (UniProt Q6XUX3); conditions: Compound concentration 1000.0 nM
[22] = target: Ephrin type-A receptor 1 (Homo sapiens) (UniProt P21709); conditions: Compound concentration 1000.0 nM
[23] = test system: Receptor-type tyrosine-protein kinase FLT3 (Homo sapiens), P36888 [K663Q]; conditions: Compound concentration 1000.0 nM
[24] = target: D(2) dopamine receptor (Homo sapiens) (UniProt P14416); conditions: Compound concentration 10.0 uM
[25] = target: Activin receptor type-2A (Homo sapiens) (UniProt P27037); conditions: Compound concentration 1000.0 nM
[26] = target: MAP kinase-interacting serine/threonine-protein kinase 1 (Homo sapiens) (UniProt Q9BUB5); conditions: Compound concentration 1000.0 nM
[27] = target: Megakaryocyte-associated tyrosine-protein kinase (Homo sapiens) (UniProt P42679); conditions: Compound concentration 1000.0 nM
[28] = target: Ankyrin repeat and protein kinase domain-containing protein 1 (Homo sapiens) (UniProt Q8NFD2); conditions: Compound concentration 1000.0 nM
[29] = target: Serine/threonine-protein kinase 26 (Homo sapiens) (UniProt Q9P289); conditions: Compound concentration 1000.0 nM
[30] = target: Serine/threonine-protein kinase ULK1 (Homo sapiens) (UniProt O75385); conditions: Compound concentration 1000.0 nM
[31] = target: Tyrosine-protein kinase Fer (Homo sapiens) (UniProt P16591); conditions: Compound concentration 1000.0 nM
[32] = target: Ephrin type-A receptor 4 (Homo sapiens) (UniProt P54764); conditions: Compound concentration 1000.0 nM
[33] = target: Mitogen-activated protein kinase 7 (Homo sapiens) (UniProt Q13164); conditions: Compound concentration 1000.0 nM
[34] = target: Kappa-type opioid receptor (Rattus norvegicus) (UniProt P34975); assay: k-Opioid (rat) CEREP ligand profiling; conditions: Compound concentration 10.0 uM
[35] = target: Calcium/calmodulin-dependent protein kinase type II subunit beta (Homo sapiens) (UniProt Q13554); conditions: Compound concentration 1000.0 nM
[36] = target: 5-hydroxytryptamine receptor 3A (Homo sapiens) (UniProt P46098); conditions: Compound concentration 10.0 uM
[37] = target: Tyrosine-protein kinase TXK (Homo sapiens) (UniProt P42681); conditions: Compound concentration 1000.0 nM
[38] = target: Aurora kinase C (Homo sapiens) (UniProt Q9UQB9); conditions: Compound concentration 1000.0 nM
[39] = test system: Phosphatidylinositol 4,5-bisphosphate 3-kinase catalytic subunit alpha isoform (Homo sapiens), P42336 [H1047L]; conditions: Compound concentration 1000.0 nM
[40] = target: Dual specificity mitogen-activated protein kinase kinase 6 (Homo sapiens) (UniProt P52564); conditions: Compound concentration 1000.0 nM
[41] = target: Serine/threonine-protein kinase RIO1 (Homo sapiens) (UniProt Q9BRS2); conditions: Compound concentration 1000.0 nM
[42] = test system: Tyrosine-protein kinase ABL1 (Homo sapiens), P00519 [F317L]; conditions: Compound concentration 1000.0 nM
[43] = test system: Proto-oncogene tyrosine-protein kinase receptor Ret (Homo sapiens), P07949 [V804L]; conditions: Compound concentration 1000.0 nM
[44] = target: High affinity nerve growth factor receptor (Homo sapiens) (UniProt P04629); conditions: Compound concentration 1000.0 nM

Chain of Phosphatidylinositol 4,5-bisphosphate 3-kinase catalytic subunit alpha isoform (Homo sapiens), P42336 [H1047L] (P42336 whole entry H1047L, canonical isoform): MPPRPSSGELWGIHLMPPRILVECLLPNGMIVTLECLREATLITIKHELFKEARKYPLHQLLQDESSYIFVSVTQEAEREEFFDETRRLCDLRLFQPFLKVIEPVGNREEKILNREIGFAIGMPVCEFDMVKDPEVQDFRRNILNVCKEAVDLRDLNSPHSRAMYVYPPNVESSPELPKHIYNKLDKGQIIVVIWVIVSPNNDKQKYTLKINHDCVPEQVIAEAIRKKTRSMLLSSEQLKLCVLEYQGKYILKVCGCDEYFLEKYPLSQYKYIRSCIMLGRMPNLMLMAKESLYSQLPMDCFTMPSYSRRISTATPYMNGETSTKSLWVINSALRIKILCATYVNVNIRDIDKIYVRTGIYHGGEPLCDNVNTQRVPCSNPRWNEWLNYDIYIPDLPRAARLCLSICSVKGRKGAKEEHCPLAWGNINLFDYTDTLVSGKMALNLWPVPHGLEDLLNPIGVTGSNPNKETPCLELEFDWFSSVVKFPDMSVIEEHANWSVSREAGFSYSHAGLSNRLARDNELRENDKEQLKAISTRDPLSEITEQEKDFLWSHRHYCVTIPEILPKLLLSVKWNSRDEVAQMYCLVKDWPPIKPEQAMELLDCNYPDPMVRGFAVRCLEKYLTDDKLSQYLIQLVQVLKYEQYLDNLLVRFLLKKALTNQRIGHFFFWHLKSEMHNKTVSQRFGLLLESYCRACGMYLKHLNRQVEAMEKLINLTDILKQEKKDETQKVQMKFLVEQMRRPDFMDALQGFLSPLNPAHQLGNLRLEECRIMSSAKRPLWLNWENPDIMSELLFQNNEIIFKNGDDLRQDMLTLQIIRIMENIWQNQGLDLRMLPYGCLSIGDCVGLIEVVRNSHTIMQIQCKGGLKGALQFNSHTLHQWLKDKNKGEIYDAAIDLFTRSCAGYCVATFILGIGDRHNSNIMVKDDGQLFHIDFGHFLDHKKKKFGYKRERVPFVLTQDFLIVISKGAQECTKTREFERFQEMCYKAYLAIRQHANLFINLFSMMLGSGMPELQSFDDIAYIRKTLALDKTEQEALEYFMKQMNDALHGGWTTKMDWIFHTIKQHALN
Chain of Ephrin type-A receptor 4 (Homo sapiens) (P54764 whole entry): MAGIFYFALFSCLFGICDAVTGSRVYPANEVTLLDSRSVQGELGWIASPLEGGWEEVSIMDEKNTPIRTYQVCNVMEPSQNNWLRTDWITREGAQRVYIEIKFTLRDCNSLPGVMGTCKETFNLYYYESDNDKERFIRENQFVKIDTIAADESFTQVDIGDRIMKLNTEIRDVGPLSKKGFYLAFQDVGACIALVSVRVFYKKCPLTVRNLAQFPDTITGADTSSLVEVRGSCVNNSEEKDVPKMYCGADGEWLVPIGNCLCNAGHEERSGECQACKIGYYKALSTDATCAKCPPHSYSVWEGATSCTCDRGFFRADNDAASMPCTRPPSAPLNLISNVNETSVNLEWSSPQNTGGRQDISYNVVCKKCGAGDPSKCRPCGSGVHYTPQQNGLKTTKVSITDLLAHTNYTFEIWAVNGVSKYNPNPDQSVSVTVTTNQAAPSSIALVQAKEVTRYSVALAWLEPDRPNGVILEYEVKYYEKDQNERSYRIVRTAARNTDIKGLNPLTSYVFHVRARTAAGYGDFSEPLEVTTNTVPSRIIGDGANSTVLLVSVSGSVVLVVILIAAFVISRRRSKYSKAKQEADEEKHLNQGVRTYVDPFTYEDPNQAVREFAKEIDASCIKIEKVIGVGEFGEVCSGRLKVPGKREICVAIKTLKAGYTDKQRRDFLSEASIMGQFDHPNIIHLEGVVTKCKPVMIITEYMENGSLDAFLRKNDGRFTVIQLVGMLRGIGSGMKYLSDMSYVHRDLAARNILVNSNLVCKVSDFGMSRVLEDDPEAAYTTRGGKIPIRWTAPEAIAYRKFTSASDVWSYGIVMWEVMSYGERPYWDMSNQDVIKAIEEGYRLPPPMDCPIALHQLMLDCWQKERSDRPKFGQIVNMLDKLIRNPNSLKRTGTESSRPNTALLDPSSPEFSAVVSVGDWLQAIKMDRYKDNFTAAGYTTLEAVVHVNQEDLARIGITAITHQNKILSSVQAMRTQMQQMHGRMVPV
Chain of Cyclin-dependent kinase-like 2 (Homo sapiens) (Q92772 whole entry): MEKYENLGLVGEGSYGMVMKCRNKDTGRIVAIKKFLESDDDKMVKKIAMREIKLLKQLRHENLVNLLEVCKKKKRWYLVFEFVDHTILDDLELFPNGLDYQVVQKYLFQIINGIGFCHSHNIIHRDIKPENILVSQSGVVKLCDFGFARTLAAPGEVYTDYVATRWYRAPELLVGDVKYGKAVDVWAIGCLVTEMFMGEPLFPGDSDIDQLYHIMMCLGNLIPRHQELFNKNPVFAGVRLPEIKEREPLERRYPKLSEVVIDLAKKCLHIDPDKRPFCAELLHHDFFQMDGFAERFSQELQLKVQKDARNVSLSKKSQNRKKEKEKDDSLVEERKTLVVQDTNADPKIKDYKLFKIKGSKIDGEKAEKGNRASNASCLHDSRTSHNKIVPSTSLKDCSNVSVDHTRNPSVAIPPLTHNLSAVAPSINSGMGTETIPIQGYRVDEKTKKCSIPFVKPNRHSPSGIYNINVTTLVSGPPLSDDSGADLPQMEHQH
Chain of Mitogen-activated protein kinase kinase kinase kinase 5 (Homo sapiens) (Q9Y4K4 whole entry, looked up): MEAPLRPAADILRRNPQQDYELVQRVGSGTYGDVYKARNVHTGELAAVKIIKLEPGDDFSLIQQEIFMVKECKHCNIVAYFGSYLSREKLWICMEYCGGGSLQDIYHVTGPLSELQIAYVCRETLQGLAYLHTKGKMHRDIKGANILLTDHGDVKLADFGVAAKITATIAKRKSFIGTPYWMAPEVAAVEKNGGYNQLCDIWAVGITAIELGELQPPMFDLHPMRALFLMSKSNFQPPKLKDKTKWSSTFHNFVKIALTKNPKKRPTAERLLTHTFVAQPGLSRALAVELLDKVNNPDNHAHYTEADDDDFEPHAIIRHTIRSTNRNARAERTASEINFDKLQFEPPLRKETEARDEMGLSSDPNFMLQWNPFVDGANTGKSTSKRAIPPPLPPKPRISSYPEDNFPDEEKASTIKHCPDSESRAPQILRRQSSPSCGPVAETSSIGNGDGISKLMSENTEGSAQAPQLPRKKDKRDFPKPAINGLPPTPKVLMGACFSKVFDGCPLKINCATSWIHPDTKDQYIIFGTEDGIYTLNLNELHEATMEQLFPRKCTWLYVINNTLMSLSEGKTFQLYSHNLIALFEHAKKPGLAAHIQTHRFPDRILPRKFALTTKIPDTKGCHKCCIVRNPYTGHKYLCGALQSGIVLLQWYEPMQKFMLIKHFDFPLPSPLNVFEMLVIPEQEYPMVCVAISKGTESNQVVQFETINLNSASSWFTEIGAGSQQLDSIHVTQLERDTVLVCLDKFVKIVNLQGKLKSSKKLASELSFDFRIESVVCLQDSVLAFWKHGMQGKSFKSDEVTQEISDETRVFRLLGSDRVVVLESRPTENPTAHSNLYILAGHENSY
Chain of Dual specificity testis-specific protein kinase 1 (Homo sapiens) (Q15569 whole entry, looked up): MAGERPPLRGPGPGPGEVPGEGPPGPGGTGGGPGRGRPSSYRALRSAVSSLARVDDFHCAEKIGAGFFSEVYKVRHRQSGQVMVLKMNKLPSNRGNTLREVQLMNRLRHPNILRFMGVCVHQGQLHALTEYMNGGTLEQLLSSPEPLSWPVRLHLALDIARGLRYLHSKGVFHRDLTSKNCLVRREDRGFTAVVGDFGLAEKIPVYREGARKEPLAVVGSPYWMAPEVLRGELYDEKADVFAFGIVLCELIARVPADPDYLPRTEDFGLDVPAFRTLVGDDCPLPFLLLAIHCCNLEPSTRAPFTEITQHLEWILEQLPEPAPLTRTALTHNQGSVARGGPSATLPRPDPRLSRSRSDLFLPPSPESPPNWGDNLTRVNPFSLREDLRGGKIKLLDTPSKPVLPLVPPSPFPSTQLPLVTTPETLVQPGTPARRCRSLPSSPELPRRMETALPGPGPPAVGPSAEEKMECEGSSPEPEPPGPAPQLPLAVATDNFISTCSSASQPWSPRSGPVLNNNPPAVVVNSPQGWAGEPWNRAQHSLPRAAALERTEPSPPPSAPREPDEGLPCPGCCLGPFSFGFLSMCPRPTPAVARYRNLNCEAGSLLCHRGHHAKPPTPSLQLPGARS
Chain of Serine/threonine-protein kinase MAK (Homo sapiens) (P20794 whole entry): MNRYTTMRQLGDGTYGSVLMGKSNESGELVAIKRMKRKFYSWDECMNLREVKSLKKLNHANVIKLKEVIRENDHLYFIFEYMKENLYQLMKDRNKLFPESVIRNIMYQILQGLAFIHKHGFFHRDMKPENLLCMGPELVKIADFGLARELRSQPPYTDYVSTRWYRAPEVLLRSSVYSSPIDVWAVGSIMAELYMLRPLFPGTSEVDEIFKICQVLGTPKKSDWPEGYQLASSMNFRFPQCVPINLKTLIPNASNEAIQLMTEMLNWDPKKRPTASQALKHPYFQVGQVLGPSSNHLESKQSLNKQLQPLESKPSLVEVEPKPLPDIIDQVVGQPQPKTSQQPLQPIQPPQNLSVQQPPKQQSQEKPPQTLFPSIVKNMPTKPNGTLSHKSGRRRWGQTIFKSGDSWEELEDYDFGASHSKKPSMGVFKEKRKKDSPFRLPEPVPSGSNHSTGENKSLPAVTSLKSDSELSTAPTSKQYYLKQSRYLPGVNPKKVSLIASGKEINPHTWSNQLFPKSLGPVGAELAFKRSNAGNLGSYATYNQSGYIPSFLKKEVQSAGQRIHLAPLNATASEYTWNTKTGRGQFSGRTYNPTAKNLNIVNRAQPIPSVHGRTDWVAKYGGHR
Chain of Dual specificity mitogen-activated protein kinase kinase 6 (Homo sapiens) (P52564 whole entry): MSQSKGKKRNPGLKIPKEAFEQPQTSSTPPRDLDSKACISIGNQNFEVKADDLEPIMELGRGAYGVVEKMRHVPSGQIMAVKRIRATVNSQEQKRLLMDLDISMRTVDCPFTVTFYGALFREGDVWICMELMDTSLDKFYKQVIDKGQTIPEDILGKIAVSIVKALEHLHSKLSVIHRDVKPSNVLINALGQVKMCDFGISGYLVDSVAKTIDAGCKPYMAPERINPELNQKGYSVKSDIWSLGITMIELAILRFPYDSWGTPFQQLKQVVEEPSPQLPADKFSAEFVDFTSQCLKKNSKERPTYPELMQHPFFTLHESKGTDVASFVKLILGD

C[C@H](c1ccc(F)cc1)N(Cc1cccc(C(=O)O)c1)C(=O)c1cnc2ccccc2c1 [PF-05105679]
inactive: residual activity [1] 100% | residual activity [2] 100% | inhibition [3] 20.8% | residual activity [4] 79% | residual activity [5] 100% | residual activity [6] 100% | residual activity [7] 80% | residual activity [8] 100% | residual activity [9] 100% | residual activity [10] 86% | residual activity [11] 100% | residual activity [12] 90% | residual activity [13] 100% | residual activity [14] 63% | inhibition [15] 3.36% | residual activity [16] 100% | residual activity [17] 96% | residual activity [18] 68% | residual activity [19] 100% | residual activity [20] 100% | residual activity [21] 100% | residual activity [22] 100% | residual activity [23] 100% | inhibition [24] 7.61% | residual activity [25] 100% | residual activity [26] 100% | residual activity [27] 79% | residual activity [28] 81% | residual activity [29] 79% | residual activity [30] 86% | residual activity [31] 100% | residual activity [32] 92% | residual activity [33] 78% | inhibition [34] 20% | residual activity [35] 100% | inhibition [36] -1.19% | residual activity [37] 100% | residual activity [38] 100% | residual activity [39] 100% | residual activity [40] 100% | residual activity [41] 100% | residual activity [42] 91% | residual activity [43] 85% | residual activity [44] 100%
